The results in this text go back to patent US7393865B2, “Sleep inducing compounds and methods relating thereto” (Neurocrine Biosciences, Inc., priority 2004, dated 2008).

pKi: −log10 of the molar value.

The assay deals with T1, human H1 receptor (Homo sapiens, UniProt P35367).
T1 construct: expressed in transfected cells; host or cells: CHO cells (crude membranes)
T1 sequence (P35367 whole entry): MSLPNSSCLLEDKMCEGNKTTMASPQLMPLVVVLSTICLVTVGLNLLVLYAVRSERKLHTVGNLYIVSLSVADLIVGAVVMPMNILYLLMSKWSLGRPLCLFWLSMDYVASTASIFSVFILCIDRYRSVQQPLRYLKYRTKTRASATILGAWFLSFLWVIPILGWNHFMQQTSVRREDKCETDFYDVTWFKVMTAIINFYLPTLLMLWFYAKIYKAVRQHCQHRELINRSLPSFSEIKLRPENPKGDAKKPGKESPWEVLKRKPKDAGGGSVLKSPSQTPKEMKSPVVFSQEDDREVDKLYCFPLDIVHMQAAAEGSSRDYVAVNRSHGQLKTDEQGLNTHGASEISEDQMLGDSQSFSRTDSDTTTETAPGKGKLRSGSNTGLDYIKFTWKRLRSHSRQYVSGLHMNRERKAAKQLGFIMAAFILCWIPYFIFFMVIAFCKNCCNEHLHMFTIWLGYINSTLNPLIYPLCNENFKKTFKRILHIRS
The assay can be described thus: Human histamine H1 receptor binding assay. The following applies: competition with 1.5 nM [pyridinyl-5-3H] Pyrilamine, crude membranes of CHO cells transfected with human H1 receptor; Ki from IC50 by Cheng-Prusoff. How it is done: Compounds of the present invention may be evaluated for binding to the histamine H1 receptor by a standard binding assay. […] Pyrilamine (˜30 Ci/mmol, Amersham TRK608) in the presence of varying concentrations of competing ligand. Non-specific binding is determined in the presence of excess (1 μM) doxepin. Bound and free ligand are separated by rapid vacuum filtration using a Packard 96-well cell harvester onto UniFilter GF/C filter plates (PerkinElmer) that has been pretreated with 1% polyethyleneimine. The filter plates are then washed with 600 μl phosphate buffered saline containing 0.01% (v/v) Triton-X100. Bound radioligand is determined by scintillation counting using a TopCount-NXT (Packard). Binding data is analyzed by nonlinear, least-squares curve fitting algorithms using GraphPad Prism (GraphPad Software, Inc. San Diego, Calif.) or ActivityBase (IDBS, Guildford, Surrey, UK).
In general, pKi refers to −log10 of the Ki, conventionally taken in molar units. A low value points to a large Ki. Take `Cc1cc(Cc2c(CCN(C)C)sc3ccccc23)n(C)n1` [Compound 13-13, {2-[3-(2,5-Dimethyl-2H-pyrazol-3-ylmethyl)-benzo[b]thiophen-2-yl]-ethyl}-dimethyl-amine]: the pKi is not below 6.00. Under `Cc1ccc(C(C)c2c(CCN(C)C)sc3ccccc23)cn1` (centres unmarked) [Compound 10-3, Dimethyl-(2-{3-[1-(6-methyl-pyridin-3-yl)-ethyl]-benzo[b]thiophen-2-yl}-ethyl)-amine] stands not below 6.00; under `CN(C)CCc1sc2ccccc2c1Cc1cccc(O)n1` [Compound 13-8, 6-[2-(2-Dimethylamino-ethyl)-benzo[b]thiophen-3-ylmethyl]-pyridin-2-ol], not below 6.00; under `CN(C)CCc1sc2ccccc2c1Cc1cscn1` [Compound 13-6, Dimethyl-[2-(3-thiazol-4-ylmethyl-benzo[b]thiophen-2-yl)-ethyl]-amine], not below 6.00.

Regarding `C=C(c1ccccn1)c1c(CCN(C)C)sc2ccccc12` [Compound 6-2, Dimethyl-{2-[3-(1-pyridin-2-yl-vinyl)-benzo[b]thiophen-2-yl]-ethyl}-amine], the pKi is not below 6.00.

The compound `COc1cccnc1Cc1c(CCN(C)C)sc2ccccc12` [Compound 13-7, {2-[3-(3-Methoxy-pyridin-2-ylmethyl)-benzo[b]thiophen-2-yl]-ethyl}-dimethyl-amine] gave a pKi not below 6.00. As for `C[C@@H](c1cncs1)c1c(CCN(C)C)sc2ccccc12` [Compound 17-3, Dimethyl-{2-[3-((R)-1-thiazol-5-yl-ethyl)-benzo[b]thiophen-2-yl]-ethyl}-amine], the pKi was not below 6.00. Turning to `CN(C)CCc1sc2ccccc2c1Cc1ccccn1` [Compound 13-3, Dimethyl-[2-(3-pyridin-2-ylmethyl-benzo[b]thiophen-2-yl)-ethyl]-amine], the pKi is not below 6.00.

`CC(c1ccc(F)cn1)c1c(CCN(C)C)sc2ccccc12` (centres unmarked) [Compound 7-3, (2-{3-[1-(5-Fluoro-pyridin-2-yl)-ethyl]-benzo[b]thiophen-2-yl}-ethyl)-dimethyl-amine] had a pKi not below 6.00. Under `COc1ncccc1[C@@H](C)c1c(CCN(C)C)sc2ccccc12` [Compound 15-5, Dimethyl-(2-{3-[(R)-1-(2-methoxy-pyridin-3-yl)-ethyl]-benzo[b]thiophen-2-yl}-ethyl)-amine] stands not below 6.00; under `CN(C)CCc1sc2ccccc2c1Cc1ccc(F)cc1` [Compound 3-2, {2-[3-(4-Fluoro-benzyl)-benzo[b]thiophen-2-yl]-ethyl}-dimethyl-amine], not below 6.00.

In the case of `CC(c1ccccn1)c1c(CCN2CCC2)sc2ccccc12` (centres unmarked) [Compound 20-7, 2-{1-[2-(2-Azetidin-1-yl-ethyl)-benzo[b]thiophen-3-yl]-ethyl}-pyridine], the pKi is not below 6.00. Under `CC(c1ccc(F)cc1)c1c(CCN(C)C)sc2ccccc12` (centres unmarked) [Compound 3-4, (2-{3-[1-(4-Fluoro-phenyl)-ethyl]-benzo[b]thiophen-2-yl}-ethyl)-dimethyl-amine] stands not below 6.00; under `C[C@@H](c1ccccn1)c1c(CCN2CCC2)sc2ccccc12` [Compound 20-8, 2-{(R)-1-[2-(2-Azetidin-1-yl-ethyl)-benzo[b]thiophen-3-yl]-ethyl}-pyridine], not below 6.00. In turn, `C[C@@H](c1ccccn1)c1c(CCN(C)C)sc2ccccc12` [Compound 12-2, Dimethyl-{2-[3-((R)-1-pyridin-2-yl-ethyl)-benzo[b]thiophen-2-yl]-ethyl}-amine] had a pKi not below 6.00. `CN(C)CCc1sc2ccccc2c1C(C)(O)c1ccc(F)cc1` (centres unmarked) [Compound 3-3, 1-[2-(2-Dimethylamino-ethyl)-benzo[b]thiophen-3-yl]-1-(4-fluoro-phenyl)-ethanol]: the pKi is not below 6.00. `C[C@@H](c1cscn1)c1c(CCN2CCCC2)sc2ccccc12` [Compound 19-5, 4-{(R)-1-[2-(2-Pyrrolidin-1-yl-ethyl)-benzo[b]thiophen-3-yl]-ethyl}-thiazole] gave a negative logarithm of the Ki (pKi) not below 6.00. Under `C=C(c1cccnc1)c1c(CCN(C)C)sc2ccccc12` [Compound 6-4, Dimethyl-{2-[3-(1-pyridin-3-yl-vinyl)-benzo[b]thiophen-2-yl]-ethyl}-amine] stands not below 6.00; under `CC(c1cccc(F)n1)c1c(CCN(C)C)sc2ccccc12` (centres unmarked) [Compound 15-3], not below 6.00; under `COc1cccc(C(C)c2c(CCN(C)C)sc3ccccc23)n1` (centres unmarked) [Compound 15-2, (2-{3-[1-(6-Methoxy-pyridin-2-yl)-ethyl]-benzo[b]thiophen-2-yl}-ethyl)-dimethyl-amine], not below 6.00.

On to `Cc1ccc2c(C(C)c3ccccn3)c(CCN(C)C)sc2c1` (centres unmarked) [Compound 4-2, Dimethyl-{2-[6-methyl-3-(1-pyridin-2-yl-ethyl)-benzo[b]thiophen-2-yl]-ethyl}-amine], for which the pKi was not below 6.00. Compound `CN(C)CCc1sc2ccccc2c1C(C)(O)c1ccccn1` (centres unmarked) [Compound 6-1, 1-[2-(2-Dimethylamino-ethyl)-benzo[b]thiophen-3-yl]-1-pyridin-2-yl-ethanol] had a pKi not below 6.00. Under `CCCN(C)CCc1sc2ccccc2c1C(C)c1ccccn1` (centres unmarked) [Compound 9-2, Methyl-propyl-{2-[3-(1-pyridin-2-yl-ethyl)-benzo[b]thiophen-2-yl]-ethyl}-amine] stands not below 6.00; under `C[C@H](c1cscn1)c1c(CCN2CCCC2)sc2ccccc12` [Compound 19-6, 4-{(S)-1-[2-(2-Pyrrolidin-1-yl-ethyl)-benzo[b]thiophen-3-yl]-ethyl}-thiazole], not below 6.00; under `CN(C)CCc1sc2ccccc2c1Cc1cnns1` [Compound 13-12, Dimethyl-[2-(3-[1,2,3]thiadiazol-5-ylmethyl-benzo[b]thiophen-2-yl)-ethyl]-amine], not below 6.00. Under `CC(c1cscn1)c1c(CCN(C)C)sc2ccccc12` (stereo in doubt) [Compound 16-4, Dimethyl-{2-[3-((R)-1-thiazol-4-yl-ethyl)-benzo[b]thiophen-2-yl]-ethyl}-amine] stands not below 6.00.
